{
  "source": "patent US11414377B2",
  "about": "“Modulator of metabotropic and ionotropic transmembrane receptors and use thereof” (IBD THERAPEUTICS LLC, priority 2018, dated 2022)",
  "key": {"balb/c male mice": {"tested_on": "balb/c male mice", "test": "Acute pain response model, administration of mustard oil in mice", "assay_type": "in vivo", "method": "The study of the activity of the compound on the acute pain response model was conducted using a standard procedure (Laird M. A., Martinez-Caro L., Garcia-Nicas E., Cervero F. A new model of visceral pain and referred hyperalgesia in the mouse//J. Pain 92 (2001). P. 335-342).\nThe study was carried out on balb/c male mice, the individual weight of which deviates from the mean value within the sex of no more than ±10%. First, the mice were lightly anesthetized (after 24 hours of fasting). Then 1% solution of mustard oil in physiological solution was introduced to the animals at 4 cm in depth with the help of catheter 3.5 F. The solvent was introduced to the healthy control. 5 minutes after the introduction of the mustard oil, the presence of pain in the animal (a number of abdominal lickings, abdominal wall abductions, lower abdominal deformity to the floor, abdominal distension) was evaluated during the first 20 minutes. Compound I was administered once intragastrically 1 hour before the administration of mustard oil. The obtained data were checked using the Grubb's test for the presence of the largest or smallest abnormal observation (ejection) in the sample. Values determined “to be eliminated” in this test were not used for further assay. For all data, descriptive statistics was used: a mean value (M) and standard error of the mean value (m) were counted up. The normality of distribution of the values obtained in the course of the experiment was checked with the aid of the Kolmogorov-Smirnov test. In the case of normal distribution, Student's t-test (t-test) was used to evaluate the inter-group distinctions. In the case of the distribution that is other than the normal one the Kruskall-Wallis test (with Dann's post hoc test) was used for the comparison of several groups. Distinctions were determined at 5% at a level of confidence."}, "[1]": {"test": "Pharmacokinetics and tissue bioavailability after oral administration to rats", "assay_type": "in vivo", "settings": "oral 10 mg/kg (therapeutic dose)", "method": "To confirm low systemic availability of Compound 1, the study of pharmacokinetics and bioavailability of Compound 1 was carried out after the oral administration to rats in a dose of 10 mg/kg. The study was carried out on 18 male Vistar rats. Blood sampling in the animals was carried out at given time points for 24 h after the administration of the preparation. The content of Compound 1 in plasma samples was analyzed by HPLC-MS/MS, the […] was 1 ng/ml."}},
  "data": [
    {"smiles": "O=C(Cc1ccc(O)cc1)N[C@@H](Cc1ccccc1)C(=O)NCCc1ccccc1", "note": "[Compound I, 2-phenylethylamide N-(p-hydroxyphenylacetyl)phenylalanine]", "values": [
      {"measurement": "Number of pain sensations, 0-20 min", "setting": "balb/c male mice; 15 mg/kg once intragastrically 1 hour prior to mustard oil, control 10.4 ± 1.59, intact 2.2 ± 0.33", "value": "2.56 ± 0.78 &"},
      {"measurement": "Number of pain sensations, 0-20 min", "setting": "balb/c male mice; 1.5 once intragastrically 1 hour prior to mustard oil, control 10.4 ± 1.59", "value": "14.8 ± 3.01"},
      {"measurement": "Number of pain sensations, 0-20 min", "setting": "balb/c male mice; 3 once intragastrically 1 hour prior to mustard oil, control 10.4 ± 1.59", "value": "8.56 ± 0.94"},
      {"measurement": "Number of pain sensations, 0-20 min", "setting": "balb/c male mice; 7.5 once intragastrically 1 hour prior to mustard oil, control 10.4 ± 1.59", "value": "15.1 ± 1.7"},
      {"measurement": "Penetration into the brain", "setting": "[1]", "value": "does not penetrate into the brain of rats"}
    ]}
  ]
}
